Measurements published in article PMC6032158, “Structure–Activity Relationship of Piplartine and Synthetic Analogues against Schistosoma mansoni and Cytotoxicity to Mammalian Cells” (International Journal of Molecular Sciences, 2018).
“Also recorded” adds a separate entry of the source.

Experiments:
[1] = system: murine fibroblast (NIH-3T3) cells; experiment: MTT cytotoxicity assay in murine fibroblasts; assay type: cell-based
Method: Next, the medium was removed and various concentrations (25–800 µg/mL) of samples reconstituted in 3% DMSO were applied. DMSO (3%) was used as a control. The plates were incubated for 24 h. Next, 15 µL of MTT solution (5 mg/mL in phosphate buffer) was added to each well and the plates were incubated for 2 h. Medium was discarded and 100 µL of DMSO was added to each well. Absorbance was determined using a spectrophotometer with a microplate reader at 595 nm (Molecular Devices Corporation, Sunnyvale, CA, USA).

[2] = system: 49-day-old S. mansoni adult worms; experiment: In vitro experiments with adult worms of S. mansoni (mortality, motor activity); assay type: cell-based, Schistosoma mansoni; conditions: for Dead Worms (%) F / Motor Activity Reduction (%) Significant F / Motor Activity Reduction (%) Slight F: female worms; for Dead Worms (%) M / Motor Activity Reduction (%) Significant M / Motor Activity Reduction (%) Slight M: male worms
Method: The Belo Horizonte (BH) strain of S. mansoni was maintained in Biomphalaria glabrata snails and Mesocricetus auratus hamsters at the Adolfo Lutz Institute (São Paulo, Brazil) according to standard procedures. Detailed methods for the infection of molluscs and hamsters, as well as for the recovery of parasites, were as described previously. Briefly, the intermediate host snails were exposed to light for approximately 3 h and cercariae of S. mansoni were subsequently harvested. […] All animals were handled in strict accordance with good animal practice as defined by the Animal Use Ethics Committee. The preparations and culture of schistosomes was performed as previously described. Briefly, hamsters were killed 49 days after infection for the recovery of adult schistosomes. Next, fresh adult worm pairs (male and female) were washed and placed in a 24-well culture plate (TPP, St. […] Adult schistosomes were maintained continuously in medium (with or without drugs) for 96 h as described below. In vitro assays in S. mansoni adults were performed with mated males and females. The worm pairs obtained from the infusion hamsters were washed twice with RPMI 1640 medium containing 200 U/mL penicillin, 200 μg/mL streptomycin and 2 μg/mL amphotericin B (Vitrocell, Campinas, Brazil). The mated parasites were then transferred into 24-well cell culture plates (TPP, St. […] Cultures of adult worms were monitored by microscopy or magnifying glass. The effect of the drug was assessed with emphasis on changes in worm motor activity and death of worms as previously described.

[3] = system: mouse BALB/cN macrophage (J774A.1) cell line; experiment: Cell viability by flow cytometry in macrophages; conditions: 24 h, 25, 100 and 400 µg/mL, vs DMEM control

COc1cc(/C=C/C(=O)N2CCCC2)cc(OC)c1OC [Compound 1G]
effect on NIH-3T3 cell viability (in words) ([1]; MTT, 24 h exposure, 25 to 800 µg/mL): considerable reduction in cell viability at concentrations of 400 and 800 μg/mL; also recorded: showed toxicity at 200, 400 and 800 μg/mL
Emax at 800 µg/mL ([1]; Mus musculus, NIH3T3, 24 h, decrease in cell viability at the maximum concentration tested (800 μg/mL), NIH-3T3, 24 h): 95.69 ± 0.79%
Dead Worms (%) F ([2]; 5 µM, 24 h): 0%
Motor Activity Reduction (%) Significant F ([2]; 5 µM, 24 h): 0%
Motor Activity Reduction (%) Slight F ([2]; 5 µM, 24 h): 0%
Dead Worms (%) M ([2]; 5 µM, 24 h): 0%
Motor Activity Reduction (%) Significant M ([2]; 5 µM, 24 h): 0%
Motor Activity Reduction (%) Slight M ([2]; 5 µM, 24 h): 0%
Dead Worms (%) F ([2]; 5 µM, 48 h): 0%
Motor Activity Reduction (%) Significant F ([2]; 5 µM, 48 h): 0%
Motor Activity Reduction (%) Slight F ([2]; 5 µM, 48 h): 0%
Dead Worms (%) M ([2]; 5 µM, 48 h): 0%
Motor Activity Reduction (%) Significant M ([2]; 5 µM, 48 h): 0%
Motor Activity Reduction (%) Slight M ([2]; 5 µM, 48 h): 0%
Dead Worms (%) F ([2]; 5 µM, 72 h): 0%
Motor Activity Reduction (%) Significant F ([2]; 5 µM, 72 h): 0%
Motor Activity Reduction (%) Slight F ([2]; 5 µM, 72 h): 0%
Dead Worms (%) M ([2]; 5 µM, 72 h): 0%
Motor Activity Reduction (%) Significant M ([2]; 5 µM, 72 h): 0%
Motor Activity Reduction (%) Slight M ([2]; 5 µM, 72 h): 0%
Dead Worms (%) F ([2]; 5 µM, 96 h): 0%
Motor Activity Reduction (%) Significant F ([2]; 5 µM, 96 h): 0%
Motor Activity Reduction (%) Slight F ([2]; 5 µM, 96 h): 0%
Dead Worms (%) M ([2]; 5 µM, 96 h): 0%
Motor Activity Reduction (%) Significant M ([2]; 5 µM, 96 h): 0%
Motor Activity Reduction (%) Slight M ([2]; 5 µM, 96 h): 0%
Dead Worms (%) F ([2]; 10 µM, 24 h): 0%
Motor Activity Reduction (%) Significant F ([2]; 10 µM, 24 h): 0%
Motor Activity Reduction (%) Slight F ([2]; 10 µM, 24 h): 0%
Dead Worms (%) M ([2]; 10 µM, 24 h): 0%
Motor Activity Reduction (%) Significant M ([2]; 10 µM, 24 h): 0%
Motor Activity Reduction (%) Slight M ([2]; 10 µM, 24 h): 0%
Dead Worms (%) F ([2]; 10 µM, 48 h): 0%
Motor Activity Reduction (%) Significant F ([2]; 10 µM, 48 h): 0%
Motor Activity Reduction (%) Slight F ([2]; 10 µM, 48 h): 0%
Dead Worms (%) M ([2]; 10 µM, 48 h): 0%
Motor Activity Reduction (%) Significant M ([2]; 10 µM, 48 h): 0%
Motor Activity Reduction (%) Slight M ([2]; 10 µM, 48 h): 0%
Dead Worms (%) F ([2]; 10 µM, 72 h): 0%
Motor Activity Reduction (%) Significant F ([2]; 10 µM, 72 h): 0%
Motor Activity Reduction (%) Slight F ([2]; 10 µM, 72 h): 0%
Dead Worms (%) M ([2]; 10 µM, 72 h): 0%
Motor Activity Reduction (%) Significant M ([2]; 10 µM, 72 h): 0%
Motor Activity Reduction (%) Slight M ([2]; 10 µM, 72 h): 0%
Dead Worms (%) F ([2]; 10 µM, 96 h): 0%
Motor Activity Reduction (%) Significant F ([2]; 10 µM, 96 h): 0%
Motor Activity Reduction (%) Slight F ([2]; 10 µM, 96 h): 0%
Dead Worms (%) M ([2]; 10 µM, 96 h): 0%
Motor Activity Reduction (%) Significant M ([2]; 10 µM, 96 h): 0%
Motor Activity Reduction (%) Slight M ([2]; 10 µM, 96 h): 0%
Dead Worms (%) F ([2]; 25 µM, 24 h): 0%
Motor Activity Reduction (%) Significant F ([2]; 25 µM, 24 h): 0%
Motor Activity Reduction (%) Slight F ([2]; 25 µM, 24 h): 0%
Dead Worms (%) M ([2]; 25 µM, 24 h): 0%
Motor Activity Reduction (%) Significant M ([2]; 25 µM, 24 h): 0%
Motor Activity Reduction (%) Slight M ([2]; 25 µM, 24 h): 0%
Dead Worms (%) F ([2]; 25 µM, 48 h): 0%
Motor Activity Reduction (%) Significant F ([2]; 25 µM, 48 h): 0%
Motor Activity Reduction (%) Slight F ([2]; 25 µM, 48 h): 0%
Dead Worms (%) M ([2]; 25 µM, 48 h): 0%
Motor Activity Reduction (%) Significant M ([2]; 25 µM, 48 h): 0%
Motor Activity Reduction (%) Slight M ([2]; 25 µM, 48 h): 0%
Dead Worms (%) F ([2]; 25 µM, 72 h): 0%
Motor Activity Reduction (%) Significant F ([2]; 25 µM, 72 h): 0%
Motor Activity Reduction (%) Slight F ([2]; 25 µM, 72 h): 0%
Dead Worms (%) M ([2]; 25 µM, 72 h): 0%
Motor Activity Reduction (%) Significant M ([2]; 25 µM, 72 h): 0%
Motor Activity Reduction (%) Slight M ([2]; 25 µM, 72 h): 0%
Dead Worms (%) F ([2]; 25 µM, 96 h): 0%
Motor Activity Reduction (%) Significant F ([2]; 25 µM, 96 h): 0%
Motor Activity Reduction (%) Slight F ([2]; 25 µM, 96 h): 0%
Dead Worms (%) M ([2]; 25 µM, 96 h): 0%
Motor Activity Reduction (%) Significant M ([2]; 25 µM, 96 h): 0%
Motor Activity Reduction (%) Slight M ([2]; 25 µM, 96 h): 0%
Dead Worms (%) F ([2]; 50 µM, 24 h): 0%
Motor Activity Reduction (%) Significant F ([2]; 50 µM, 24 h): 0%
Motor Activity Reduction (%) Slight F ([2]; 50 µM, 24 h): 0%
Dead Worms (%) M ([2]; 50 µM, 24 h): 0%
Motor Activity Reduction (%) Significant M ([2]; 50 µM, 24 h): 0%
Motor Activity Reduction (%) Slight M ([2]; 50 µM, 24 h): 0%
Dead Worms (%) F ([2]; 50 µM, 48 h): 0%
Motor Activity Reduction (%) Significant F ([2]; 50 µM, 48 h): 0%
Motor Activity Reduction (%) Slight F ([2]; 50 µM, 48 h): 0%
Dead Worms (%) M ([2]; 50 µM, 48 h): 0%
Motor Activity Reduction (%) Significant M ([2]; 50 µM, 48 h): 0%
Motor Activity Reduction (%) Slight M ([2]; 50 µM, 48 h): 0%
Dead Worms (%) F ([2]; 50 µM, 72 h): 0%
Motor Activity Reduction (%) Significant F ([2]; 50 µM, 72 h): 0%
Motor Activity Reduction (%) Slight F ([2]; 50 µM, 72 h): 0%
Dead Worms (%) M ([2]; 50 µM, 72 h): 0%
Motor Activity Reduction (%) Significant M ([2]; 50 µM, 72 h): 0%
Motor Activity Reduction (%) Slight M ([2]; 50 µM, 72 h): 0%
Dead Worms (%) F ([2]; 50 µM, 96 h): 0%
Motor Activity Reduction (%) Significant F ([2]; 50 µM, 96 h): 0%
Motor Activity Reduction (%) Slight F ([2]; 50 µM, 96 h): 0%
Dead Worms (%) M ([2]; 50 µM, 96 h): 0%
Motor Activity Reduction (%) Significant M ([2]; 50 µM, 96 h): 0%
Motor Activity Reduction (%) Slight M ([2]; 50 µM, 96 h): 0%
activity against S. mansoni adult worms (in words) ([2]; analogues 50, 25, 10 and 5 μM, piplartine 5 and 10 μM, up to 96 h): did not exhibit antischistosome activity at the concentrations tested
effect on J774A.1 cell viability (in words) [3]: significantly altered (p < 0.05) cell viability in comparison with the negative control, but not in a toxic manner

O=C(C1CCCCC1)N1CC(=O)N2CCc3ccccc3C2C1 (stereo not shown) [Praziquantel, praziquantel, reference compound]
Dead Worms (%) M ([2]; 2 µM, 24 h): 100%
Motor Activity Reduction (%) Significant M ([2]; 2 µM, 24 h): 100%
Motor Activity Reduction (%) Slight M ([2]; 2 µM, 24 h): 0%
Dead Worms (%) M ([2]; 2 µM, 48 h): 100%
Motor Activity Reduction (%) Significant M ([2]; 2 µM, 48 h): 100%
Motor Activity Reduction (%) Slight M ([2]; 2 µM, 48 h): 0%
Dead Worms (%) M ([2]; 2 µM, 72 h): 100%
Motor Activity Reduction (%) Significant M ([2]; 2 µM, 72 h): 100%
Motor Activity Reduction (%) Slight M ([2]; 2 µM, 72 h): 0%
Dead Worms (%) M ([2]; 2 µM, 96 h): 100%
Motor Activity Reduction (%) Significant M ([2]; 2 µM, 96 h): 100%
Motor Activity Reduction (%) Slight M ([2]; 2 µM, 96 h): 0%
